Experimental data published in US9434763B2, “Derivatives of pyridinone as inhibitors for tissue transglutaminase” (ZEDIRA GMBH, priority 2012, dated 2016).

What was measured:
Type in all cases: biochemical
Details in all cases: casein as substrate
TG1 (transglutaminase 1) = biological target: T1, TG1 (transglutaminase 1) (Homo sapiens, UniProt P22735); assay: Comparative transglutaminase selectivity assay with casein and dansylcadaverine as substrates: TG1
T1 construct: purchased Zedira T009
T1 sequence (P22735 1-817): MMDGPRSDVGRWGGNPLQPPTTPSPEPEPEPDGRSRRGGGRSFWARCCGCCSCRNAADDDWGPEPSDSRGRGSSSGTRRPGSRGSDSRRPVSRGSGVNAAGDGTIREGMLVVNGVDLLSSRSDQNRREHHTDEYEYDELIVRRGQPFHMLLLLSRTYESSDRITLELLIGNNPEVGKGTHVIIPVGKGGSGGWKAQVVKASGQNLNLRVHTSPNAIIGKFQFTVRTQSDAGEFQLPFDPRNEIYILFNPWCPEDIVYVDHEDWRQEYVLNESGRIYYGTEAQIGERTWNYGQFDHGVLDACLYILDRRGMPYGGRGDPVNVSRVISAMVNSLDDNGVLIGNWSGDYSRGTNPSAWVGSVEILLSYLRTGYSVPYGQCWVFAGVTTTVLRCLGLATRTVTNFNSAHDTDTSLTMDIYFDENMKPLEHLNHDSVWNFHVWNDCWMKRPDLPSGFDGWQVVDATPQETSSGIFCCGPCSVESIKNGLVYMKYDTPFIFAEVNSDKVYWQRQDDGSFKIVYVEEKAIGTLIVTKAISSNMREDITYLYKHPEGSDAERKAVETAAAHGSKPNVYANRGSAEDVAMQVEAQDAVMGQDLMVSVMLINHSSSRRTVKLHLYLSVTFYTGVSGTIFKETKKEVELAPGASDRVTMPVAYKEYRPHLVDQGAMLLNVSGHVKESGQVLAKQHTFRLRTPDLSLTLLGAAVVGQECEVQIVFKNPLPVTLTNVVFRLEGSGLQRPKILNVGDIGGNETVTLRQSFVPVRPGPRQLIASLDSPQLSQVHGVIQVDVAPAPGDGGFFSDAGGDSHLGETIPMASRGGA
Source text: (§1) The comparative determination of different transglutaminases to determine the selectivity was made with casein and dansylcadaverine as substrates. Therefore, the kit T036 (Zedira, Darmstadt; Refs: Lorand et al, Anal Biochem, 1971, 44:221-31) as well as transglutaminase products T009 (transglutaminase 1), T012 (transglutaminase 3), T021 (transglutaminase 6) and T027 (plasma transglutaminase, factor XIII) are used. Therefore, two different IC50 values for the compounds are given.
(§2) The evaluation of the resulting enzyme activity is done using the slope of the straight line obtained by the increase in fluorescence.
(§3) To determine the non-inhibited enzyme activity, DMSO instead of inhibitor stock solution is used. IC50 values are determined by plotting the resulting enzyme activity against the logarithm of the inhibitor concentration. IC50 is defined as the concentration of inhibitor resulting in 50% of enzyme activity.
(§4) It should be noted that it was measured here against casein as substrate, which is why other apparent inhibition values (IC50 value) result.

TG6 (transglutaminase 6) = biological target: T2, TG6 (transglutaminase 6) (Homo sapiens, UniProt O95932); assay: Comparative transglutaminase selectivity assay with casein and dansylcadaverine as substrates: TG6
T2 construct: purchased Zedira T021
T2 sequence (O95932 1-706): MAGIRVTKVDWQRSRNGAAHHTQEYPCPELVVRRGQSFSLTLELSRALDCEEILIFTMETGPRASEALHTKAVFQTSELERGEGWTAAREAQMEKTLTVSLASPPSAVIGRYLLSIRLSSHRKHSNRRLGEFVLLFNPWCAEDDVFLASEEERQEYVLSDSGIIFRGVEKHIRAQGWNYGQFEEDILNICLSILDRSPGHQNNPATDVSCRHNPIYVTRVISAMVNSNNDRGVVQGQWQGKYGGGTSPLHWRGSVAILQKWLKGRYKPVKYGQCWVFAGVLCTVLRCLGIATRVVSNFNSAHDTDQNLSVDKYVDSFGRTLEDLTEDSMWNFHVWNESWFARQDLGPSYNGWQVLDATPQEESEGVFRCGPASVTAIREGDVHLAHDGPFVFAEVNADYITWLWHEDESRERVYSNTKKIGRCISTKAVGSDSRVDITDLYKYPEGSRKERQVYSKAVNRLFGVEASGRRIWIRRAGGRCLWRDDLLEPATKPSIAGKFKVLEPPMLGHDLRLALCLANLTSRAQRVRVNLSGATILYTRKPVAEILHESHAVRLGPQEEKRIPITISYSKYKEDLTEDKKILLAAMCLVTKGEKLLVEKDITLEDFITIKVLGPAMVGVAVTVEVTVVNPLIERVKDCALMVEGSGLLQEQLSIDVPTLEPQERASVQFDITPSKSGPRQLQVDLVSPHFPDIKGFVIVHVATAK
Source text: as §1, §2, §3, §4

TG3 (transglutaminase 3) = biological target: T3, TG3 (transglutaminase 3) (Homo sapiens, UniProt Q08188); assay: Comparative transglutaminase selectivity assay with casein and dansylcadaverine as substrates: TG3
T3 construct: purchased Zedira T012
T3 sequence (Q08188 1-693): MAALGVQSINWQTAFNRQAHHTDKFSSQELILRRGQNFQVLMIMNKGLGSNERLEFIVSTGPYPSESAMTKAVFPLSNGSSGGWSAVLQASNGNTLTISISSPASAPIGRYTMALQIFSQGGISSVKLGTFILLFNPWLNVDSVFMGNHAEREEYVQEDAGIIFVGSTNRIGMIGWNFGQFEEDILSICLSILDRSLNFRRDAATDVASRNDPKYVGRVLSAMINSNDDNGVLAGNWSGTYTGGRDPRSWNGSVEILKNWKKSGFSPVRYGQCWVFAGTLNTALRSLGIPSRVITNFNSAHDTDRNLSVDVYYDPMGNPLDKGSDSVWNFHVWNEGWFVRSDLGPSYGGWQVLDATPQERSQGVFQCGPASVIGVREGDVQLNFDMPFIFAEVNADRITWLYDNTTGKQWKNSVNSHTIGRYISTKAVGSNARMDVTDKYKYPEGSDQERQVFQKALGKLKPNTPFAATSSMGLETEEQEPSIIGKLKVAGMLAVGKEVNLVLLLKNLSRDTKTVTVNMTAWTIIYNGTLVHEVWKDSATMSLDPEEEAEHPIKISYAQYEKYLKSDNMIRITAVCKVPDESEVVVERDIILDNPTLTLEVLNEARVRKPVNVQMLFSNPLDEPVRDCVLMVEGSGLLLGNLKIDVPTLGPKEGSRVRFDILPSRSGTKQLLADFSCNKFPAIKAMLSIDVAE
Source text: as §1, §2, §3, §4

| Structure (SMILES) | IC50 (TG1 (transglutaminase 1)) | IC50 (TG6 (transglutaminase 6)) | IC50 (TG3 (transglutaminase 3)) |
| --- | --- | --- | --- |
| CCOC(=O)/C=C/CC[C@H](NC(C)=O)C(=O)Nc1cccn(CC(=O)NCCC(CC)CC)c1=O [A42, (S,E)-ethyl 6-acetamido-7-(1-(2-(3-ethylpentylamino)-2-oxoethyl)-2-oxo-1,2-dihydropyridin-3-ylamino)-7-oxohept-2-enoate] | 86 µM | 36.7 µM | 104 µM |
| CCC(CC)CNC(=O)Cn1cccc(NC(=O)[C@H](CC/C=C/C(=O)OC)NC(C)=O)c1=O [A79, (S,E)-Methyl 6-acetamido-7-(1-(2-(2-ethylbutylamino)-2-oxoethyl)-2-oxo-1,2-dihydropyridin-3-ylamino)-7-oxohept-2-enoate] | 80.7 µM | 47.8 µM | 59.6 µM |
